The source made the active and inactive calls. The calls are words filed in the database; no cut-off is given here.
How the values were obtained:
[1] = Selectivity index, ratio of CC50 for rat L6 cells to IC50 for erythrocytic stage of chloroquine and pyrimethamine resistant Plasmodium falciparum K1; assay type: toxicity; conditions: read-out: Ratio CC50/IC50
[2] = Selectivity index, ratio of CC50 for rat L6 cells to IC50 for Trypanosoma brucei rhodesiense STIB900 trypomastigote; assay type: toxicity; conditions: read-out: Ratio CC50/IC50
[3] = Cytotoxicity against rat L6 cells after 72 hrs by alamar blue staining based fluorescence assay; assay type: cell-based
[4] = Selectivity index, ratio of CC50 for rat L6 cells to IC50 for Trypanosoma cruzi Tulahuen strain C2C4 amastigote forms infected in rat L6 cells; assay type: toxicity, cell-based; conditions: read-out: Ratio CC50/IC50
Trypanosoma cruzi = assay: Antitrypanosomal activity against Trypanosoma cruzi Tulahuen strain C2C4 amastigote forms infected in rat L6 cells after 96 hrs by CPRG/Nonidet reagent based photometric method; assay type: functional, organism-based; conditions: Tulahuen strain C2C4, L6, 96 h
Plasmodium falciparum = assay: Antiprotozoal activity against erythrocytic stage of chloroquine and pyrimethamine resistant Plasmodium falciparum K1 assessed as reduction in [3H]-hypoxanthine incorporation preincubated for 24 hrs followed by [3H]-hypoxanthine addition measured after 24 hrs by scintillation counting method; assay type: functional, organism-based
Leishmania donovani = assay: Antileishmanial activity against Leishmania donovani MHOM/ET/67/L82 axenic amastigotes after 72 hrs by alamar blue staining based fluorescence assay; assay type: functional, organism-based; conditions: MHOM/ET/67/L82, 72 h
[5] = tested on: Trypanosoma brucei rhodesiense; assay: Antiprotozoal activity against Trypanosoma brucei rhodesiense STIB900 trypomastigote after 72 hrs by Alamar Blue assay; assay type: functional, organism-based; conditions: STIB900, 72 h
[6] = Selectivity index, ratio of CC50 for rat L6 cells to IC50 for Leishmania donovani MHOM/ET/67/L82 axenic amastigotes; assay type: toxicity; conditions: read-out: Ratio CC50/IC50
[7] = biological target: Sterol 14-alpha demethylase (Trypanosoma cruzi (strain CL Brener)) (UniProt Q7Z1V1); assay: Binding affinity to Trypanosoma cruzi CYP51 at 5 to 10 uM by 96-well based UV-vis spectroscopic method
Chain of Sterol 14-alpha demethylase (Trypanosoma cruzi (strain CL Brener)) (Q7Z1V1 whole entry, looked up): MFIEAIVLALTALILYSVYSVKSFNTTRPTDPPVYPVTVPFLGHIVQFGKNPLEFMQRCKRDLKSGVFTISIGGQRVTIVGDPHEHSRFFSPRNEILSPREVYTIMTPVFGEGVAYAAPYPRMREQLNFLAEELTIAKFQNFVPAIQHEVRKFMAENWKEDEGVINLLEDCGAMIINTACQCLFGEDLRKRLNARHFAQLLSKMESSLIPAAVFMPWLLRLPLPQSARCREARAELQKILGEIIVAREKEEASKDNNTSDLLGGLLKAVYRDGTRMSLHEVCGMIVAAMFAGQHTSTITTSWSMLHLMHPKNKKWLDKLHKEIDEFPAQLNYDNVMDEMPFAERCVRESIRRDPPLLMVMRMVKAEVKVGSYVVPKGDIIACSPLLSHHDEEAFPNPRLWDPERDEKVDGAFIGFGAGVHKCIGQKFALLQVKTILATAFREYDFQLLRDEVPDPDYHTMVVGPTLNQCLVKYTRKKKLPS

| SMILES | selectivity ratio [1] | selectivity ratio [2] | CC50 at 72 h [3] [µM] | selectivity ratio [4] | IC50 (Trypanosoma cruzi) [µM] | IC50 (Plasmodium falciparum) [µM] | IC50 (Leishmania donovani) [µM] | IC50 [5] [µM] | selectivity ratio [6] | Activity [7] |
| --- | --- | --- | --- | --- | --- | --- | --- | --- | --- | --- |
| Fc1ccc(-n2ccc(C(c3ccc(Cl)cc3)n3ccnc3)c2)cc1 (stereo not drawn) | 15 | 3 | 47.5 | 14 | 3.3 | 3.16 | 10.4 | 16.9 | 5 | – |
| Nc1nc(N)nc(Nc2ccc([As]3SCC(CO)S3)cc2)n1 (stereo not drawn) [MELARSOPROL] | – | – | – | – | – | – | – | 0.0088 | – | – |
| Clc1ccc(-c2c[nH]cc2C(c2ccc(Cl)cc2)n2ccnc2)cc1 (stereo not drawn) | 37 | – | 4.83 | 85 | 0.057 | 0.13 | 7.01 | 15.9 | 1 | – |
| Clc1ccc(-c2c[nH]cc2C(c2ccc(Cl)cc2Cl)n2ccnc2)cc1 (stereo not drawn) | 60 | – | 9.61 | 275 | 0.035 | 0.16 | 3.77 | 17.3 | 3 | Active |
| Clc1ccc(C(c2c[nH]cc2-c2ccc(Cl)c(Cl)c2)n2ccnc2)c(Cl)c1 (stereo not drawn) | 26 | – | 3.64 | 173 | 0.021 | 0.14 | 4.6 | 12.5 | 1 | Active |
| Clc1ccc(C(c2c[nH]cc2-c2cccc3ccccc23)n2ccnc2)c(Cl)c1 (stereo not drawn) | 37 | 1 | 12.3 | 128 | 0.096 | 0.33 | 1.91 | 12 | 6 | – |
| CCCCCCCCCCCCCCCCOP(=O)([O-])OCC[N+](C)(C)C [MILTEFOSINE] | – | – | – | – | – | – | 0.56 | – | – | – |
| c1ccc(C(c2ccn(-c3ccccc3)c2)n2ccnc2)cc1 (stereo not drawn) | 20 | 2 | 80.8 | 21 | 3.91 | 4.14 | 14.5 | 35.1 | 6 | – |
| O=[N+]([O-])c1ccc(-c2c[nH]cc2C(c2ccc(Cl)cc2Cl)n2ccnc2)cc1 (stereo not drawn) | 35 | 3 | 16.9 | 5 | 3.22 | 0.48 | 7.82 | 5.57 | 2 | – |
| Fc1ccc(C(c2ccn(-c3ccc(F)cc3)c2)n2ccnc2)cc1 (stereo not drawn) | 20 | 2 | 87.1 | 19 | 4.53 | 4.44 | 45.9 | 43.8 | 2 | – |
| Fc1ccc(-n2ccc(C(c3ccccc3)n3ccnc3)c2)cc1 (stereo not drawn) | 19 | 5 | 104 | 17 | 6.14 | 5.36 | 31.5 | 20.4 | 3 | – |
| COc1cc([C@@H]2c3cc4c(cc3[C@H](O)[C@H]3COC(=O)[C@H]23)OCO4)cc(OC)c1OC [PODOFILOX] | – | – | 0.007 | – | – | – | – | – | – | – |

— ChEMBL document CHEMBL4270551, “Biological evaluation and structure-activity relationships of imidazole-based compounds as antiprotozoal agents” (Eur J Med Chem, 2018)
